In PubChem BioAssay AID2060604 (Molecular Pharmacology Branch, DTP, NCI, 2025):
pIC50: −log10 of the molar value.

Tested on: 379773-124-R-J2-PDC complex spheroids, viability % test/control
Assay: Anticancer human tumor 379773-124-R-J2-PDC patient-derived endometrial carcinoma cell line growth inhibition [CLK]
Details: for pIC50: curve of first compound; for viability, T/C: stronger effect = lower value
Method in brief: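 Patient-derived tumor cells grown as complex spheroids with HUVEC endothelial cells and mesenchymal stem cells, treated with drug combinations. Concentrations descend in half-log steps from near clinical Cmax, or from 10 microM if Cmax unknown.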

[1] = second compound 0.0316 µM, first compound 0.00949 µM
[2] = second compound 0.0316 µM, first compound 0.03 µM
[3] = second compound 0.0316 µM, first compound 0.0949 µM
[4] = second compound 0.0316 µM, first compound 0.3 µM
[5] = second compound 0.1 µM, first compound 0.00949 µM
[6] = second compound 0.1 µM, first compound 0.03 µM
[7] = second compound 0.1 µM, first compound 0.0949 µM
[8] = second compound 0.1 µM, first compound 0.3 µM
[9] = second compound 0.316 µM, first compound 0.00949 µM
[10] = second compound 0.316 µM, first compound 0.03 µM
[11] = second compound 0.316 µM, first compound 0.0949 µM
[12] = second compound 0.316 µM, first compound 0.3 µM
[13] = second compound 1 µM, first compound 0.00949 µM
[14] = second compound 1 µM, first compound 0.03 µM
[15] = second compound 1 µM, first compound 0.0949 µM
[16] = second compound 1 µM, first compound 0.3 µM
[17] = second compound 3.16 µM, first compound 0.00949 µM
[18] = second compound 3.16 µM, first compound 0.03 µM
[19] = second compound 3.16 µM, first compound 0.0949 µM
[20] = second compound 3.16 µM, first compound 0.3 µM
[21] = second compound 10 µM, first compound 0.00949 µM
[22] = second compound 10 µM, first compound 0.03 µM
[23] = second compound 10 µM, first compound 0.0949 µM
[24] = second compound 10 µM, first compound 0.3 µM
[25] = second compound 0.0316 µM, first compound 0.0316 µM
[26] = second compound 0.0316 µM, first compound 0.1 µM
[27] = second compound 0.0316 µM, first compound 0.316 µM
[28] = second compound 0.0316 µM, first compound 1 µM
[29] = second compound 0.0316 µM, first compound 3.16 µM
[30] = second compound 0.0316 µM, first compound 10 µM
[31] = second compound 0.1 µM, first compound 0.0316 µM
[32] = second compound 0.1 µM, first compound 0.1 µM
[33] = second compound 0.1 µM, first compound 0.316 µM
[34] = second compound 0.1 µM, first compound 1 µM
[35] = second compound 0.1 µM, first compound 3.16 µM
[36] = second compound 0.1 µM, first compound 10 µM
[37] = second compound 0.316 µM, first compound 0.0316 µM
[38] = second compound 0.316 µM, first compound 0.1 µM
[39] = second compound 0.316 µM, first compound 0.316 µM
[40] = second compound 0.316 µM, first compound 1 µM
[41] = second compound 0.316 µM, first compound 3.16 µM
[42] = second compound 0.316 µM, first compound 10 µM
[43] = second compound 1 µM, first compound 0.0316 µM
[44] = second compound 1 µM, first compound 0.1 µM
[45] = second compound 1 µM, first compound 0.316 µM
[46] = second compound 1 µM, first compound 1 µM
[47] = second compound 1 µM, first compound 3.16 µM
[48] = second compound 1 µM, first compound 10 µM
[49] = second compound 3.16 µM, first compound 0.0316 µM
[50] = second compound 3.16 µM, first compound 0.1 µM
[51] = second compound 3.16 µM, first compound 0.316 µM
[52] = second compound 3.16 µM, first compound 1 µM
[53] = second compound 3.16 µM, first compound 3.16 µM
[54] = second compound 3.16 µM, first compound 10 µM
[55] = second compound 10 µM, first compound 0.0316 µM
[56] = second compound 10 µM, first compound 0.1 µM
[57] = second compound 10 µM, first compound 0.316 µM
[58] = second compound 10 µM, first compound 1 µM
[59] = second compound 10 µM, first compound 3.16 µM
[60] = second compound 10 µM, first compound 10 µM
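Further: compound exposure lasted seven days before the viability readout.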
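Wherever viability, T/C is given: 100% = DMSO vehicle control wells.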

C=CC(=O)Nc1cc(Nc2nccc(-c3cn(C)c4ccccc34)n2)c(OC)cc1N(C)CCN(C)C + CN1CCN(c2cc(C(=O)Nc3cc4cc(-c5cnn(C)c5)ccc4cn3)ccn2)CC1
pIC50 (second compound 0.0316 µM): < 6.52
pIC50 (second compound 0.1 µM): < 6.52
pIC50 (second compound 0.316 µM): > 9.02
pIC50 (second compound 1 µM): > 9.02
pIC50 (second compound 3.16 µM): > 9.02
pIC50 (second compound 10 µM): > 9.02
viability, T/C (second compound 0.0316 µM, first compound 0.000949 µM): 100%
viability, T/C (second compound 0.0316 µM, first compound 0.003 µM): 93.1%
viability, T/C [1]: 99.4%
viability, T/C [2]: 84.7%
viability, T/C [3]: 96%
viability, T/C [4]: 89.7%
viability, T/C (second compound 0.1 µM, first compound 0.000949 µM): 80.4%
viability, T/C (second compound 0.1 µM, first compound 0.003 µM): 74%
viability, T/C [5]: 102%
viability, T/C [6]: 84%
viability, T/C [7]: 76.2%
viability, T/C [8]: 84.6%
viability, T/C (second compound 0.316 µM, first compound 0.000949 µM): 20.2%
viability, T/C (second compound 0.316 µM, first compound 0.003 µM): 31.4%
viability, T/C [9]: 34%
viability, T/C [10]: 34%
viability, T/C [11]: 29.6%
viability, T/C [12]: 20.9%
viability, T/C (second compound 1 µM, first compound 0.000949 µM): 0.28%
viability, T/C (second compound 1 µM, first compound 0.003 µM): 1.12%
viability, T/C [13]: 1.77%
viability, T/C [14]: 0.18%
viability, T/C [15]: 1.57%
viability, T/C [16]: 0.13%
viability, T/C (second compound 3.16 µM, first compound 0.000949 µM): 1.26%
viability, T/C (second compound 3.16 µM, first compound 0.003 µM): 0.19%
viability, T/C [17]: 0.82%
viability, T/C [18]: 1.59%
viability, T/C [19]: 0.11%
viability, T/C [20]: 0.61%
viability, T/C (second compound 10 µM, first compound 0.000949 µM): 0.28%
viability, T/C (second compound 10 µM, first compound 0.003 µM): 0.45%
viability, T/C [21]: 0.46%
viability, T/C [22]: 0.59%
viability, T/C [23]: 0.28%
viability, T/C [24]: 0.26%

CC1(C)CCC(CN2CCN(c3ccc(C(=O)NS(=O)(=O)c4ccc(NCC5CCOCC5)c([N+](=O)[O-])c4)c(Oc4cnc5[nH]ccc5c4)c3)CC2)=C(c2ccc(Cl)cc2)C1 + CN1CCN(c2cc(C(=O)Nc3cc4cc(-c5cnn(C)c5)ccc4cn3)ccn2)CC1
pIC50 (second compound 0.0316 µM): 5.32
pIC50 (second compound 0.1 µM): 5.30
pIC50 (second compound 0.316 µM): > 7.50
pIC50 (second compound 1 µM): > 7.50
pIC50 (second compound 3.16 µM): > 7.50
pIC50 (second compound 10 µM): > 7.50
viability, T/C [25]: 99.5%
viability, T/C [26]: 88.1%
viability, T/C [27]: 86%
viability, T/C [28]: 108%
viability, T/C [29]: 74.1%
viability, T/C [30]: 6.08%
viability, T/C [31]: 84.1%
viability, T/C [32]: 81.3%
viability, T/C [33]: 88.3%
viability, T/C [34]: 87.8%
viability, T/C [35]: 83.1%
viability, T/C [36]: 1.06%
viability, T/C [37]: 26.2%
viability, T/C [38]: 26.1%
viability, T/C [39]: 26.7%
viability, T/C [40]: 28.9%
viability, T/C [41]: 24.3%
viability, T/C [42]: 1.02%
viability, T/C [43]: 0.19%
viability, T/C [44]: 1.14%
viability, T/C [45]: 0.4%
viability, T/C [46]: 0.16%
viability, T/C [47]: 0.08%
viability, T/C [48]: 0.07%
viability, T/C [49]: 0.86%
viability, T/C [50]: 0.92%
viability, T/C [51]: 2.05%
viability, T/C [52]: 0.09%
viability, T/C [53]: 0.64%
viability, T/C [54]: 0.09%
viability, T/C [55]: 0.1%
viability, T/C [56]: 0.14%
viability, T/C [57]: 0.15%
viability, T/C [58]: 0.61%
viability, T/C [59]: 3.58%
viability, T/C [60]: 0.16%

NC(=O)C(=Cn1cnc(-c2cc(C(F)(F)F)cc(C(F)(F)F)c2)n1)c1cncnc1 + CN1CCN(c2cc(C(=O)Nc3cc4cc(-c5cnn(C)c5)ccc4cn3)ccn2)CC1
pIC50 (second compound 0.0316 µM): 7.23
pIC50 (second compound 0.1 µM): 7.32
pIC50 (second compound 0.316 µM): > 8.02
pIC50 (second compound 1 µM): > 8.02
pIC50 (second compound 3.16 µM): > 8.02
pIC50 (second compound 10 µM): > 8.02
viability, T/C [1]: 84.8%
viability, T/C [2]: 64.5%
viability, T/C [3]: 39.2%
viability, T/C [4]: 22.6%
viability, T/C (second compound 0.0316 µM, first compound 0.949 µM): 11.4%
viability, T/C (second compound 0.0316 µM, first compound 3 µM): 5.29%
viability, T/C [5]: 60.4%
viability, T/C [6]: 57.7%
viability, T/C [7]: 39.9%
viability, T/C [8]: 17.9%
viability, T/C (second compound 0.1 µM, first compound 0.949 µM): 8.03%
viability, T/C (second compound 0.1 µM, first compound 3 µM): 2.96%
viability, T/C [9]: 16.4%
viability, T/C [10]: 14.8%
viability, T/C [11]: 7.32%
viability, T/C [12]: 3.49%
viability, T/C (second compound 0.316 µM, first compound 0.949 µM): 1.06%
viability, T/C (second compound 0.316 µM, first compound 3 µM): 0.04%
viability, T/C [13]: 0.1%
viability, T/C [14]: 0.12%
viability, T/C [15]: 0.3%
viability, T/C [16]: 0.14%
viability, T/C (second compound 1 µM, first compound 0.949 µM): 1.96%
viability, T/C (second compound 1 µM, first compound 3 µM): 0.06%
viability, T/C [17]: 2.45%
viability, T/C [18]: 0.72%
viability, T/C [19]: 0.44%
viability, T/C [20]: 0.13%
viability, T/C (second compound 3.16 µM, first compound 0.949 µM): 0.11%
viability, T/C (second compound 3.16 µM, first compound 3 µM): 0.11%
viability, T/C [21]: 0.45%
viability, T/C [22]: 0.13%
viability, T/C [23]: 1.03%
viability, T/C [24]: 0.18%
viability, T/C (second compound 10 µM, first compound 0.949 µM): 0.19%
viability, T/C (second compound 10 µM, first compound 3 µM): 0.17%

Nc1ccccc1NC(=O)c1ccc(CNC(=O)OCc2cccnc2)cc1 + CN1CCN(c2cc(C(=O)Nc3cc4cc(-c5cnn(C)c5)ccc4cn3)ccn2)CC1
pIC50 (second compound 0.0316 µM): 5.51
pIC50 (second compound 0.1 µM): 5.71
pIC50 (second compound 0.316 µM): > 7.50
pIC50 (second compound 1 µM): > 7.50
pIC50 (second compound 3.16 µM): > 7.50
pIC50 (second compound 10 µM): > 7.50
viability, T/C [25]: 89.8%
viability, T/C [26]: 92.6%
viability, T/C [27]: 113%
viability, T/C [28]: 104%
viability, T/C [29]: 49.1%
viability, T/C [30]: 10.4%
viability, T/C [31]: 82.2%
viability, T/C [32]: 81%
viability, T/C [33]: 111%
viability, T/C [34]: 66.2%
viability, T/C [35]: 36%
viability, T/C [36]: 5.29%
viability, T/C [37]: 21.2%
viability, T/C [38]: 27.6%
viability, T/C [39]: 17.5%
viability, T/C [40]: 13.2%
viability, T/C [41]: 4.61%
viability, T/C [42]: 0.06%
viability, T/C [43]: 0.13%
viability, T/C [44]: 0.25%
viability, T/C [45]: 0.3%
viability, T/C [46]: 1.14%
viability, T/C [47]: 0.04%
viability, T/C [48]: 0.92%
viability, T/C [49]: 0.08%
viability, T/C [50]: 0.1%
viability, T/C [51]: 0.08%
viability, T/C [52]: 1.25%
viability, T/C [53]: 0.1%
viability, T/C [54]: 0.09%
viability, T/C [55]: 0.15%
viability, T/C [56]: 0.81%
viability, T/C [57]: 0.62%
viability, T/C [58]: 1.15%
viability, T/C [59]: 1.4%
viability, T/C [60]: 0.15%
